Source: patent publication US9615577B2, “Herbicidally active cyclic dione compounds, or derivatives therefor, substituted by a phenyl which has an alkynyl-containing substituent” (Syngenta Limited, priority 2012, dated 2017)

How the values were obtained:
Type in all cases: in vivo
[1] = tested on: Abutilon theophasti Medik. (ABUTH); experiment: Test 1A glasshouse assay for herbicidal activity, post-emergence; conditions: 312 h, evaluated after 13 days, read-out: percentage phytotoxicity ABUTH
Outline: (§1)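 Damage is rated by eye as percent phytotoxicity on a 0–100 scale, 13 days after treatment. Compound is sprayed in acetone/water (50:50) with 0.5% Tween 20 onto pots one day (pre-emergence) or eight days (post-emergence) after sowing, with plants kept at 24/16 °C and 14 h light.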

[2] = tested on: Alopecurus myosuroides (ALOMY); experiment: Test 1A glasshouse assay for herbicidal activity, pre-emergence; conditions: 312 h, 250 g/ha, evaluated after 13 days, read-out: percentage phytotoxicity ALOMY
Outline: as §1

[3] = tested on: Setaria faberi (SETFA); experiment: as above; conditions: 312 h, 250 g/ha, evaluated after 13 days, read-out: percentage phytotoxicity SETFA
Outline: as §1

[4] = tested on: Echinochloa crus-galli (ECHCG); experiment: as above; conditions: 312 h, 250 g/ha, evaluated after 13 days, read-out: percentage phytotoxicity ECHCG
Outline: as §1

[5] = tested on: Amaranthus retroflexus (AMARE); experiment: as above; conditions: 312 h, 250 g/ha, evaluated after 13 days, read-out: percentage phytotoxicity AMARE
Outline: as §1

[6] = tested on: Triticum aestivum (TRZAW, winter wheat); experiment: Test 1B glasshouse assay for herbicidal activity, post-emergence; conditions: 360 h
Outline: (§2)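 Plants grown in soil at 20/16° C day/night, 16 h light, 65% humidity; sprayed after 1 day (pre-emergence) or ~12 days (post-emergence) with formulated compound in 0.2% v/v X-77 adjuvant. Visual % phytotoxicity scored 20 DAA (pre) or 15 DAA (post).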

[7] = tested on: Brassica napus (BRSNN, rape); experiment: as above; conditions: 360 h
Outline: as §2

[8] = tested on: Beta vulgaris (BEAVA, sugar beet); experiment: as above; conditions: 360 h
Outline: as §2

[9] = tested on: Echinochloa crus-galli (ECHCG); experiment: as above; conditions: Echinochloa crus-galli
Outline: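 Plants grown about 12 days (10–13) in glasshouse (24/18 °C day/night, 16 h light, 65% humidity) then sprayed with IF50 formulation diluted in 0.2% v/v X-77 adjuvant at set application rates. Percent phytotoxicity scored visually 15 days after application (0 = no damage, 100 = total damage).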

[10] = tested on: Brachiaria plantaginea (BRAPL); experiment: as above; conditions: Urochloa plantaginea
Outline: (§3)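 Pots sown in standard soil; IF50 formulation diluted in 0.2% v/v X-77 and sprayed 1 day after sowing (pre-emergence) or ~12 days (post-emergence). Glasshouse at 24/18 or 20/16 °C, 16 h light, 65% humidity. Visual % phytotoxicity (0–100) scored 20 DAA pre-emergence, 15 DAA post-emergence.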

[11] = tested on: Alopecurus myosuroides (ALOMY); experiment: Test 1B glasshouse assay for herbicidal activity, pre-emergence; conditions: 480 h, 125 g/ha, 20 DAA, read-out: percentage phytotoxicity ALOMY
Protocol: (§4) Seeds of a variety of monocotyledonous and dicotyledonous test plants are sown in standard soil in pots. The plants are cultivated for one day (for pre-emergence) or for about 12 days (range=10-13 days) (for post-emergence) under controlled conditions in a glasshouse (warm climate species at 24/18° C., cool climate species at 20/16° C., both at day/night; 16 hours light; 65% humidity).
(§5) An “instant formulation”, known as the “IF50”, containing 50 g/liter (i.e. 5% w/v) of the “technical” (i.e. unformulated) active ingredient is prepared by dissolving the active ingredient in a mixture of organic solvents and emulsifier, details of which are provided in the Table below. This IF50 is then mixed with a small, variable amount of acetone to aid dissolution, before addition of a 0.2% v/v aqueous solution of the adjuvant X-77 (which is a mixture of alkyl aryl polyoxyethylene glycols and free fatty acids in isopropanol, CAS Registry number 11097-66-8), as the aqueous diluent, to form an aqueous spray solution which contains a predetermined concentration of the active ingredient (which varies depending on the application rate of the active ingredient to the plants) and 0.2% v/v of the adjuvant X-77. This aqueous spray solution is then sprayed onto the plants, after one day's cultivation (for pre-emergence) or after about 12 days' cultivation (for post-emergence).
(§6) The test plants are then grown on, in a glasshouse (greenhouse) under controlled conditions (at either 24/18° C. or 20/16° C. (day/night) as mentioned above; 16 hours light; 65% humidity) and are watered twice daily. Either 15 days after application of the herbicide (15 DAA) (for post-emergence), or 20 days after application of the herbicide (20 DAA) (for pre-emergence), the test plants are evaluated visually, and an assessed percentage phytotoxicity score is given for each herbicidal application on each plant species (where 100%=total damage to plant; 0%=no damage to plant).
(§7) Cool climate (“cool season”) grassy monocotyledonous weeds: Alopecurus myosuroides (ALOMY), Avena fatua (AVEFA), Lolium perenne (LOLPE).

[12] = tested on: Avena fatua (AVEFA); experiment: as above; conditions: 480 h, 125 g/ha, 20 DAA, read-out: percentage phytotoxicity AVEFA
Protocol: as §4, §5, §6, §7

[13] = tested on: Lolium perenne (LOLPE); experiment: as above; conditions: 480 h, 125 g/ha, 20 DAA, read-out: percentage phytotoxicity LOLPE
Protocol: as §4, §5, §6, §7

[14] = tested on: Setaria faberi (SETFA); experiment: as above; conditions: 480 h, 125 g/ha, 20 DAA, read-out: percentage phytotoxicity SETFA
Outline: as §3

[15] = tested on: SORVU (Sorghum bicolor (L.) Moench ssp. Bicolor, or Sorghum vulgare Pers.); experiment: as above; conditions: 480 h, 125 g/ha, 20 DAA, read-out: percentage phytotoxicity SORVU
Outline: as §3

CC#Cc1cc(C)c(C2=C(OC(C)=O)CC(c3ccccn3)CC2=O)c(C)c1 (stereo not drawn) [Compound A-15]
pest or weed control at 30 g/ha ([1]; 30 g/ha): 20%
pest or weed control at 250 g/ha ([1]; 250 g/ha): 80%
pest or weed control at 250 g/ha [2]: 100%
pest or weed control at 250 g/ha [3]: 100%
pest or weed control at 250 g/ha [4]: 100%
pest or weed control at 250 g/ha [5]: 40%
plant injury at 30 g/ha ([6]; 30 g/ha application rate): 70%
plant injury at 125 g/ha ([6]; 125 g/ha application rate): 80%
plant injury at 30 g/ha ([7]; 30 g/ha application rate): 60%
plant injury at 125 g/ha ([7]; 125 g/ha application rate): 70%
plant injury at 30 g/ha ([8]; 30 g/ha application rate): 30%
plant injury at 125 g/ha ([8]; 125 g/ha application rate): 30%
pest or weed control at 30 g/ha ([9]; 30 g/ha application rate): 80%
pest or weed control at 125 g/ha ([9]; 125 g/ha application rate): 100%
pest or weed control at 30 g/ha ([10]; 30 g/ha application rate): 100%
pest or weed control at 125 g/ha ([10]; 125 g/ha application rate): 100%
pest or weed control at 125 g/ha [11]: 80%
pest or weed control at 125 g/ha [12]: 50%
pest or weed control at 125 g/ha [13]: 90%
pest or weed control at 125 g/ha [14]: 80%
pest or weed control at 125 g/ha [15]: 80%
